Where “and” joins values, the source holds several entries; their conditions need not be identical. Identical values can stand only once. Entries after “also recorded” stand apart in the source; their conditions may differ.
Columns and labels:
[1] = system: MSSA colonies in the nares; test: Human study Part One: nasal colonization of MSSA, NOVEON laser alone, with H2O2 or with topical erythromycin; format: in vivo, Staphylococcus aureus; conditions: patient 01-005, Laser/erythromycin arm
Description: (§1) This investigational protocol was an open-label study of subjects who are colonized with MRSA in the nares (nostril). The study was done in two parts.
(§2) In this human study, three arms were produced. […] This was done on day 1 and again on day three; and Arm #3: ⅓ of the subjects were treated with the laser and then a topical antibiotic three times a day for five days. Prior to enrollment in this study, prospective subjects met all of the following criteria: age≧18 years and ≦70 years of age; previous positive MRSA culture; negative urine pregnancy test or post-menopausal for one year; willing to comply with study requirements, including return visits and self-application of topical antibiotics; and willing to provide informed consent to participate. Prospective subjects were excluded from this study if any of the following criteria were met: pregnancy; patients who are severely immunocompromised (such as may occur in AIDS, renal transplant regimens, immunosuppressed states consequent to malignancy or agents used in rendering oncologic care, or who suffer from end stage renal disease); diabetic patients; allergy to antimicrobials being used in the study (group 3).
(§3) All participants underwent an initial quantitative assessment for nasal carriage of S. aureus, during their first visit. Each participant had the anterior nares (each nostril) sampled for culture with a circular movement (three rotations on each side) of a sterile wood applicator plain Rayon® tipped swab in each nostril and placed in a labeled tube. 2 ml of room temp phosphate buffered saline was placed in the tube after the removal of the swab (to completely cover the swab in the tube). Each swab was then placed back in the tube and the tube was then vortexed for 15 seconds to disperse isolates of MRSA and/or MSSA into the PBS solution. Aliquots of PBS from the tube were plated in the following manner: 100 μl from each tube was lawn plated in triplicate (3×) on selective Chromogenic MRSA And MSSA agar. Plates were placed in incubator within 30 minutes of the plating procedure, and colonies were counted manually, and recorded 18 hrs after plating.
(§4) On day one of the study, all subjects underwent this exact procedure in arms 1 and 2 of the study two minutes before the laser procedure. They again were sampled in the same manner 2 minutes after the laser procedure. In the third arm of the study, they were swabbed two minutes before the procedure and the first antibiotic administration was completed after the laser therapy. The post/laser swab sample was taken for this arm 20 min later.
(§5) On day three of the study, all subjects from arms one two and three underwent the exact same procedures as day 1 of the study.
(§6) On day five all subjects from all arms underwent just one swabbing per nostril with the exact same sampling procedure one time.
(§7) 3% OTC hydrogen peroxide was applied to a cotton pledget for application to the subject prior to irradiation. This was inserted in the nose for 120 seconds and then removed. The subjects were then given doses of phototherapeutic near infrared radiation as described.
(§8) The subjects were first given doses of phototherapeutic near infrared radiation as described. […] The swab was inserted approximately 1 cm in to the anterior nares and rotated 360 degrees several times and removed. Patients were instructed to perform the exact application procedure 3 times a day for the remaining 5 days.
(§9) The NOVEON™ laser was used for two (2) six-minute treatments in each nostril on day (1) and day (3) of the study.
(§10) The laser was calibrated before the first treatment of the day. Intermittent temperature testing of the treatment site was performed on each subject using a noncontact infrared thermometer (Raytek Minitemp), 30-60 second intervals. If a temperature of 110 F degrees was reached, or the patient complained of pain, the laser treatment was interrupted and only resumed when the patient was comfortable.

MRSA [2] = test: MRSA/antimicrobial potentiation Experiment 4: CFU with or without methicillin, penicillin G or erythromycin, groups A4 to F4; format: cell-based, Staphylococcus aureus; conditions: for CFU: agar with 4 μg/ml erythromycin
Description: Two different laser dosages based on an effective dose established in previous experiments were used to treat a saline-suspension of logarithmically growing MRSA, labeled A4 to F4.
After 24 hrs of growth at 37° C. colonies were counted.

MRSA [3] = test: MRSA CFU counts on agar with trimethoprim or erythromycin after sub-lethal NIMELS laser (Example VIII); format: cell-based, Staphylococcus aureus
Excerpt: The following illustrates the general antibacterial methods according to the invention, using a MRSA model for the in vitro Experiments V and VIII-XII.
a) μ1 is sub-lethal dosimetry from the NIMEL laser system on MRSA as a control and;

[4] = system: nasal colonization of MRSA; test: Human study Part Two: nasal colonization of erythromycin resistant MRSA, NOVEON laser plus 2% erythromycin paste; format: in vivo, Staphylococcus aureus; conditions: six patients, before phototherapy
Description: (§11) A second human study was conducted, to further evaluate the therapeutic potential of the NOVEON™ laser system, including its ability to reverse drug resistance in bacteria. The study was conducted in a similar manner as Part One, above. Outcome measures assessed included both laboratory study and clinical observations.
(§12) Positive anterior nares cultures were obtained in six patients (12 nostrils) having nasal colonization of MRSA or MSSA, before initiating bacterial photodamage through doses of phototherapeutic near infrared radiation.
(§13) The swab was inserted approximately 1 cm in to the anterior nares of the subject, rotated 360 degrees several times and removed.
(§14) The laser was calibrated before the first treatment of the day and between each patient. The NOVEON™ laser was used for four six-minute treatments of the nares at the following sets of dosimetries (Tables 45), which were evaluated for safety in previous studies. Utilizing a 10 cm flat-top diffuser, each patient underwent exposure with the Noveon for […] (energy density—207 J/cm2) to each anterior nostril on Day 1 and on Day 3. The treatment was divided into two parts, an approximately 3-minute exposure using a combination of 870 nm and 930 nm and an approximately 3-minute exposure of 930 nm alone. Temperatures of the nares were recorded every 30 seconds with an IR temperature thermometer.

[5] = system: nasal colonization of MSSA; test: Human study Part Two: nasal colonization of erythromycin resistant MSSA, NOVEON laser plus 2% erythromycin paste; format: in vivo, Staphylococcus aureus; conditions: six patients, before phototherapy
Description: as §11, §12, §13, §14

[6] = system: MRSA colonization in the nares; test: Human study Part One: nasal colonization of MRSA, NOVEON laser alone, with H2O2 or with topical erythromycin; format: in vivo, Staphylococcus aureus
Description: as §1, §2, §3, §4, §5, §6, §7, §8, §9, §10

[7] = patient 01-005, Laser/erythromycin arm, 2% erythromycin paste 3 times a day

SMILES: CC[C@H]1OC(=O)[C@H](C)[C@@H](O[C@H]2C[C@@](C)(OC)[C@@H](O)[C@H](C)O2)[C@H](C)[C@@H](O[C@@H]2O[C@H](C)C[C@H](N(C)C)[C@H]2O)[C@](C)(O)C[C@@H](C)C(=O)[C@H](C)[C@@H](O)[C@]1(C)O [Erythromycin]
- outcome on MSSA colonization (in words) [1]: MRSA and MSSA eradication in both nostrils
- CFU (MRSA [2]; Group E4, Exp (laser treated), replicate plates 1-5): 0 CFU (3×) and 1 CFU (2×)
- CFU (MRSA [2]; Group F4, Cont (no laser), replicate plates 1-5, 24 hrs 37° C.): 170 CFU
- CFU (MRSA [2]; Group F4, Exp (laser treated), replicate plates 1-5): 2 CFU and 7 CFU and 6 CFU (2×) and 8 CFU
- synergy or potentiation with NIMELS in growth inhibition of MRSA colonies (in words) (MRSA [2]; sub-lethal NIMELS dosimetry, bar chart figure): synergistic effects; also recorded: potentiated to a greater extent
- reversal of MRSA resistance in vitro by dual wavelength NOVEON laser (in words) (MRSA [2]; temperature levels not lethal to the organism): successful reversal of MRSA resistance
- MRSA colony count, EXPERIMENTAL, erythro 4 ug/ml (MRSA [3]; sub-lethal NIMELS laser, then plated on agar with erythromycin 4 ug/ml, plates B-4 1 to 5): 27 and 39 and 35 and 28
- effect of sub-lethal NIMELS on antibiotic resistance of MRSA (in words) (MRSA [3]; sub-lethal laser parameters, erythromycin 4 ug/ml): resistance to erythromycin being reversed
- erythromycin resistance of cultured MRSA at baseline [4]: resistant to erythromycin
- erythromycin resistance of cultured MSSA at baseline [5]: resistant to erythromycin
- outcome on MRSA colonization (in words) ([6]; patient 01-005, Laser/erythromycin arm): MRSA and MSSA eradication in both nostrils
- reduction of bioburden, heavily colonized nostril [6, 7]: ≥ 3 log
- reduction of bioburden, moderately colonized nostril [6, 7]: ≥ 2 log
- sensitivity of the patient's MRSA colony to erythromycin before phototherapy ([6]; patient 01-005, prior to phototherapy): not sensitive to erythromycin prior to phototherapy

From patent US8983257B2, “Therapeutic light delivery apparatus, method, and system” (Nomir Medical Technologies, Inc., priority 2002, dated 2015)
